Experimental data reported in patent US20230026696A1, “TRPV4 RECEPTOR LIGANDS” (UNIVERSITY OF UTAH RESEARCH FOUNDATION, priority 2019, published 2023).
Counter-ions that a name gives are not always drawn.

Molecular target: T1, human TRPV4 (Homo sapiens, UniProt Q9HBA0)
T1 construct: expressed in transfected cells
Assay: Fluorometric cell-based Ca2+ flux assay, HEK-293 cells stably overexpressing human TRPV4
Settings: HEK-293 stably overexpressing human TRPV4; agonist GSK1016790A 30 nM
Experimental: Fluorometric cell-based Ca^2+ flux assays were performed to assess TRPV4 antagonist activity and determine potency (IC50 values) in human embryonic kidney-293 cells (HEK-293) that stably overexpress human TRPV4. The assays were performed according to methods described in: Deering-Rice, C. E., Johansen, M. E., Roberts, J. K., Thomas, K. C., Romero, E. G., Lee, J., Yost, G. S., Veranth, J. M., and Reilly, C. A. (2012), Mol. Pharmacol. 81(3), 411-419; Shapiro, D., Deering-Rice, C. E., Romero, E. G., Hughen, R. W., Light, A. R., Veranth, J. M., and Reilly, C. A. (2013), Chem Res. Toxicol., 26, 750-758; and Deering-Rice, C. E., Mitchell, V. K., Romero, E. G., Abdel Aziz, M. H., and Reilly, C. A. (2014), Pharmacol. Res. & Perspectives. 2(5), 1-10.
The HEK-293 cells stably overexpressing human TRPV4 were grown to confluence in 2% (w/v) gelatin-coated 96-well plates in DMEM:F12 media supplemented with 5% fetal bovine serum, 1× penicillin/streptomycin (Invitrogen) and Geneticin (300 μg/mL).
The HEK-293 cells were prepared for assay by replacing the growth media with a 1:1 solution of LHC-9 and Fluo 4-Direct (Invitrogen) reagent containing Fluo 4-AM, pluronic F-127, probenecid, and a proprietary quencher dye. The cells were then incubated at 37° C. for 1 h in a cell culture incubator. The cells were subsequently washed by replacing the loading solution with LHC-9 containing 1 mM water-soluble probenecid (Invitrogen), 750 μM Trypan Red (ATT Bioquest), and a test compound (at various concentrations). The cells were incubated for an additional 30 minutes at 37° C. to allow for Fluo 4-AM cleavage and activation, as well as equilibration to both the test compounds and Fluo 4.
An agonist treatment solution (90 nM GSK1016790A, a potent activator of TRPV4) was prepared in LHC9 at 3× concentration and 25 μL was added to 50 μL of media on the cells in 96 well plates, providing a final concentration of 30 nM. Changes in cellular fluorescence were monitored with a BMG Labtech NOVOStar fluorescence plate reader for 1 minute at 37° C. Data were quantified as the maximum rate of change in fluorescence intensity (max ΔF/s), corrected for media only treatment (negative control), and represented as the percentage of response relative to the no antagonist control. A minimum of three replicates were used for each treatment condition, with a minimum of 8 concentrations to derive the IC50 values reported for each antagonist. The IC50 values for each antagonist, which are shown in Table 4 below, were calculated according to methods described in the assays were performed according to methods described in: Deering-Rice, C. E., Johansen, M. E., Roberts, J. K., Thomas, K. C., Romero, E. G., Lee, J., Yost, G. S., Veranth, J. M., and Reilly, C. A. (2012), Mol. Pharmacol. 81(3), 411-419; Shapiro, D., Deering-Rice, C. E., Romero, E. G., Hughen, R. W., Light, A. R., Veranth, J. M., and Reilly, C. A. (2013), Chem Res. Toxicol., 26, 750-758; and Deering-Rice, C. E., Mitchell, V. K., Romero, E. G., Abdel Aziz, M. H., and Reilly, C. A. (2014), Pharmacol. Res. & Perspectives. 2(5), 1-10.

T1 sequence (Q9HBA0 whole entry): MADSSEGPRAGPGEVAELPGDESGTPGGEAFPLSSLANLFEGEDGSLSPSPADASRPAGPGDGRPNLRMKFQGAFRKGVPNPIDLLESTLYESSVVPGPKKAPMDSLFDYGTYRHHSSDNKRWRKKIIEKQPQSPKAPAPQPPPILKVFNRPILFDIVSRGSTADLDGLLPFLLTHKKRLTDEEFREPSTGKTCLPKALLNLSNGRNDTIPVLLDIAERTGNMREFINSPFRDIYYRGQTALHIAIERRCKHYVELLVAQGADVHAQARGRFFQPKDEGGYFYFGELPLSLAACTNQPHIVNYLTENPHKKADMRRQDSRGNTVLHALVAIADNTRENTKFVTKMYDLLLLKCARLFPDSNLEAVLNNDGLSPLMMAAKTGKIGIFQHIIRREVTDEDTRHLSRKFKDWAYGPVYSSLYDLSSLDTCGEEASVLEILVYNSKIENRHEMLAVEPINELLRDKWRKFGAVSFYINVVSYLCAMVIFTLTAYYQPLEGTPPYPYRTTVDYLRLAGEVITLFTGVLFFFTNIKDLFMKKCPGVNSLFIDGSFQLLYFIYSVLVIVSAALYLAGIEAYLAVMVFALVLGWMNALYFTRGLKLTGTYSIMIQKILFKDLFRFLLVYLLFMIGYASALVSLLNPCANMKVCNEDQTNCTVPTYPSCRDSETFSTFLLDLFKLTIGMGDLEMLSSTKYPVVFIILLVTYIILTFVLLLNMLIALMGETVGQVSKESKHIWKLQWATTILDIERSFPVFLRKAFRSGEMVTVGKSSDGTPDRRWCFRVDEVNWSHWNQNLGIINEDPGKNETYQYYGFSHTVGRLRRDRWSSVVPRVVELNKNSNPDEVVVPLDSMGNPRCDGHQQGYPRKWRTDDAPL

| Structure (SMILES) | IC50 [nM] |
| --- | --- |
| N#Cc1ccc(OCC2(CO)CN(S(=O)(=O)c3ccc(C(F)(F)F)cc3C#N)C2)cc1F [Compound 86, 4-((1-((2-Cyano-4-(trifluoromethyl)phenyl)sulfonyl)-3-(hydroxymethyl)azetidin-3-yl)methoxy)-2-fluorobenzonitrile] | 22.3 |
| N#Cc1ccc(OCC2(C(=O)NC3CCOCC3)CN(S(=O)(=O)c3ccc(Cl)cc3Cl)C2)cc1 [Compound 6, 3-((4-cyanophenoxy)methyl)-1-((2,4-dichlorophenyl)sulfonyl)-N-(tetrahydro-2H-pyran-4-yl)azetidine-3-carboxamide] | 12900 |
| N#Cc1ccc(NCC2(CO)CN(S(=O)(=O)c3ccc(Cl)cc3Cl)C2)cc1F [Compound 101, 4-(((1-((2,4-dichlorophenyl)sulfonyl)-3-(hydroxymethyl)azetidin-3-yl)methyl)amino)-2-fluorobenzonitrile] | 136 |
| N#Cc1ccc(OCC2(CO)CN(S(=O)(=O)c3ccc(F)c(Cl)c3)C2)cc1F [Compound 67, 4-((1-((3-chloro-4-fluorophenyl)sulfonyl)-3-(hydroxymethyl)azetidin-3-yl)methoxy)-2-fluorobenzonitrile] | 5000 |
| N#Cc1ccc(OCC2(CNCC3CCOC3)CN(S(=O)(=O)c3ccc(Cl)cc3Cl)C2)cc1F (centres unmarked) [Compound 23, 4-((1-((2,4-Dichlorophenyl)sulfonyl)-3-((((tetrahydrofuran-3-yl)methyl)amino)methyl)azetidin-3-yl)methoxy)-2-fluorobenzonitrile hydrochloride] | 4.1 |
| O=S(=O)(c1ccc(Cl)cc1Cl)N1CC(CO)(COc2ccncc2)C1 [Compound 91, (1-((2,4-Dichlorophenyl)sulfonyl)-3-((pyridin-4-yloxy)methyl)azetidin-3-yl)methanol] | ~5000 |
| NCc1ccc(OCC2(CO)CN(S(=O)(=O)c3ccc(Cl)cc3Cl)C2)cc1F [Compound 10, (3-((4-(Aminomethyl)-3-fluorophenoxy)methyl)-1-((2,4-dichlorophenyl)sulfonyl)azetidin-3-yl)methanol] | 10000 |
| O=S(=O)(c1ccc(Cl)cc1Cl)N1CC(CO)(COc2cccnc2)C1 [Compound 97, (1-((2,4-Dichlorophenyl)sulfonyl)-3-((pyridin-3-yloxy)methyl)azetidin-3-yl)methanol] | ~5000 |
| O=S(=O)(c1ccc(Cl)cc1Cl)N1CC(CO)(COc2ccc(F)c(F)c2)C1 [Compound 87, (1-((2,4-Dichlorophenyl)sulfonyl)-3-((3,4-difluorophenoxy)methyl)azetidin-3-yl)methanol] | 1000 to 3000 |
| O=S(=O)(c1ccc(Cl)cc1Cl)N1CC(CO)(COc2ccnc(Cl)c2)C1 [Compound 94, (3-(((2-Chloropyridin-4-yl)oxy)methyl)-1-((2,4-dichlorophenyl)sulfonyl)azetidin-3-yl)methanol] | ~3000 |
| N#Cc1ccc(OCC2(CO)CN(S(=O)(=O)c3ccc(Cl)cc3)C2)cc1F [Compound 84, 4-((1-((4-Chlorophenyl)sulfonyl)-3-(hydroxymethyl)azetidin-3-yl)methoxy)-2-fluorobenzonitrile] | > 302 |
| N#Cc1ccc(OCC2(CO)CN(S(=O)(=O)c3ccccc3C#N)C2)cc1F [Compound 85, 4-((1-((2-Cyanophenyl)sulfonyl)-3-(hydroxymethyl)azetidin-3-yl)methoxy)-2-fluorobenzonitrile] | 4.9 |

The next lines start with the values.

| IC50 [nM] | Structure (SMILES) |
| --- | --- |
| 10 | N#CCCNCC1(COc2ccc(C#N)c(F)c2)CN(S(=O)(=O)c2ccc(Cl)cc2Cl)C1 [Compound 36, 4-((3-(((2-Cyanoethyl)amino)methyl)-1-((2,4-dichlorophenyl)sulfonyl)azetidin-3-yl)methoxy)-2-fluorobenzonitrile] |
| 5000 | N#Cc1ccc(OCC2(CO)CN(S(=O)(=O)c3cccc(C(F)(F)F)c3)C2)cc1F [Compound 70, 2-Fluoro-4-((3-(hydroxymethyl)-1-((3-(trifluoromethyl)phenyl)sulfonyl)azetidin-3-yl)methoxy)benzonitrile] |
| 52 | N#Cc1ccc(OCC2(CNC(=O)CN)CN(S(=O)(=O)c3ccc(Cl)cc3Cl)C2)cc1F [Compound 46, 2-Amino-N-((3-((4-cyano-3-fluorophenoxy)methyl)-1-((2,4-dichlorophenyl)sulfonyl)azetidin-3-yl)methyl)acetamide] |
| > 64 | COc1ccc(S(=O)(=O)N2CC(CO)(COc3ccc(C#N)c(F)c3)C2)c(Cl)c1 [Compound 83, 4-((1-((2-chloro-4-methoxyphenyl)sulfonyl)-3-(hydroxymethyl)azetidin-3-yl)methoxy)-2-fluorobenzonitrile] |
| 62 | COCC1(COc2ccc(C#N)c(F)c2)CN(S(=O)(=O)c2ccc(Cl)cc2Cl)C1 [Compound 13, 4-((1-((2,4-Dichlorophenyl)sulfonyl)-3-(methoxymethyl)azetidin-3-yl)methoxy)-fluorobenzonitrile] |
| 5000 | COC(=O)c1ccc(S(=O)(=O)N2CC(CO)(COc3ccc(C#N)c(F)c3)C2)cc1 [Compound 63, Methyl 4-((3-((4-cyano-3-fluorophenoxy)methyl)-3-(hydroxymethyl)azetidin-1-yl)sulfonyl)benzoate] |
| 5000 | Cc1nc(C)c(S(=O)(=O)N2CC(CO)(COc3ccc(C#N)c(F)c3)C2)s1 [Compound 65, 4-((1-((2,4-Dimethylthiazol-5-yl)sulfonyl)-3-(hydroxymethyl)azetidin-3-yl)methoxy)-2-fluorobenzonitrile] |
| 53 | N#Cc1ccc(OCC2(NS(=O)(=O)CCN)CN(S(=O)(=O)c3ccc(Cl)cc3Cl)C2)cc1F [Compound 57, 2-Amino-N-(3-((4-cyano-3-fluorophenoxy)methyl)-1-((2,4-dichlorophenyl)sulfonyl)azetidin-3-yl)ethane-1-sulfonamide hydrochloride] |
| 8.7 | N#Cc1ccc(OCC2(CNC[C@@H]3CCCO3)CN(S(=O)(=O)c3ccc(Cl)cc3Cl)C2)cc1F [Compound 28, (S)-4-((1-((2,4-dichlorophenyl)sulfonyl)-3-((((tetrahydrofuran-2-yl)methyl)amino)methyl)azetidin-3-yl)methoxy)-2-fluorobenzonitrile hydrochloride] |
| 1.3 | N#Cc1ccc(OCC2(CN[C@H]3C[C@H](O)C3)CN(S(=O)(=O)c3ccc(Cl)cc3Cl)C2)cc1F [Compound 42, 4-((1-((2,4-Dichlorophenyl)sulfonyl)-3-((((trans)-3-hydroxycyclobutyl)amino)methyl)azetidin-3-yl)methoxy)-2-fluorobenzonitrile hydrochloride] |
| 413 | N#Cc1ccc(OCC2(CO)CN(S(=O)(=O)c3ccccc3Cl)C2)cc1F [Compound 58, 4-((1-((2-Chlorophenyl)sulfonyl)-3-(hydroxymethyl)azetidin-3-yl)methoxy)-2-fluorobenzonitrile] |
| 1 | CCNCC1(COc2ccc(C#N)c(F)c2)CN(S(=O)(=O)c2ccc(Cl)cc2Cl)C1 [Compound 25, 4-((1-((2,4-Dichlorophenyl)sulfonyl)-3-((ethylamino)methyl)azetidin-3-yl)methoxy)-2-fluorobenzonitrile hydrochloride] |
| 252 | CNCC(=O)NCC1(COc2ccc(C#N)c(F)c2)CN(S(=O)(=O)c2ccc(Cl)cc2Cl)C1 [Compound 48, N-((3-((4-Cyano-3-fluorophenoxy)methyl)-1-((2,4-dichlorophenyl)sulfonyl)azetidin-3-yl)methyl)-2-(methylamino)acetamide] |
| > 1000 | CCOc1cc(OCC2(COC(=O)c3ccc(Br)cc3)CN(S(=O)(=O)c3ccc(Cl)cc3Cl)C2)ccc1C#N [Compound 99, (3-((4-Cyano-3-ethoxyphenoxy)methyl)-1-((2,4-dichlorophenyl)sulfonyl)azetidin-3-yl)methyl 4-bromobenzoate] |
